In publication PMC9821162 (International Journal of Molecular Sciences, 2023):
Like-named read-outs stand apart in the source and are kept apart here.

Assays:
p-MET [1] = settings: cited from earlier work
HGF mRNA [2] = assay: Real-time PCR of HGF mRNA in MDA-MB-231 xenograft tumors; format: in vivo, nude mice (MDA-MB-231 human breast cancer xenograft); set-up: dose or concentration left out as unconfirmed; settings: tumors at 0, 3, 6, 9, 12 days
Method: (§1) In vitro, MDA-MB-231 cells were prepared as described above. […] Tumors were obtained from three mice per group at 0, 3, 6, 9, and 12 days. The total RNA was extracted using an RNA isolation kit (Takara, Shiga, Japan) according to the manufacturer’s instructions. cDNA was synthesized from 2 μg of RNA using a reverse transcriptase M-MLV synthesis kit (Takara). Real-time PCR was performed using the MyiQ5 real-time PCR detection system (Bio-Rad) with SYBR Premix Ex Taq (Takara). The PCR products for human β-actin, […], and HGF were synthesized with the primer pairs FP (forward primer) 5′-[…]-3′ and RP (reverse primer) 5′-[…]-3′ (β-actin, Gene ID: 60), FP 5′-[…]-3′ and RP 5′-[…]-3′ (MET, Gene ID: 4233), as well as FP 5′-[…]-3′ and RP 5′-[…]-3′ (HGF, Gene ID: 3082). All primers were purchased from AuGCT DNA-SYN Biotechnology Co., Ltd. (Dalian, China). Samples were run in triplicate under the following conditions: an initial denaturation for 30 s at 95 °C, followed by 45 cycles of 15 s at 95 °C, 30 s at 60 °C, and 33 s at 72 °C. The levels of gene expression in each sample were normalized to β-actin mRNA.

MET mRNA [3] = test system: MET mRNA; set-up: species or system nude mice (MDA-MB-231 human breast cancer xenograft); settings: in vivo
HGF mRNA [4] = assay: Real-time PCR of HGF mRNA in MDA-MB-231 cells; format: cell-based, human; settings: in vitro
Method: as §1

MDA-MB-231 cells = settings: in vitro, cited from earlier work
[5] = Pharmacokinetic study in tumor-bearing nude mice (LC-MS/MS); format: in vivo; settings: plasma; for AUC(0-inf) / AUC(0-t) / Cmax / Tmax / half-life / MRT: nude, mouse; for MRT: read-out: MRT (mean resident time)
Method: Data processing was performed with Phoenix WinNonlin 8.1.0.3530 (Pharsight Corporation, Mountain View, CA, USA).

MET = settings: cited from earlier work
p-MET [6] = assay: Immunohistochemical staining (IOD) of p-MET in tumor tissue; format: in vivo, nude mice (MDA-MB-231 human breast cancer xenograft); settings: 15 and 50 mg/kg for 18 days
HGF = assay: Immunohistochemical staining (IOD) of HGF in tumor tissue; format: in vivo, nude mice (MDA-MB-231 human breast cancer xenograft); settings: 15 and 50 mg/kg for 18 days
Method: After the paraffin sections of tumors were deparaffinized, rehydrated, and washed with PBS (pH 7.4), antigen retrieval was performed by boiling the sections in 10 mmol/L sodium citrate buffer (pH 6.0) in the microwave for 4 min. The endogenous peroxidase activity was quenched by placing the slides in 3% hydrogen peroxide in methanol. The slides were then blocked with 3% BSA-PBS, followed by incubation with a 1:425 dilution of the primary antibody of p-MET and HGF (Cell Signaling Technology, Danvers, MA, USA) overnight at 4 °C. Thereafter, the detection was performed using a biotin-conjugated secondary antibody and a streptavidin-horseradish peroxidase conjugate (SA-HRP), followed by colorimetric detection using diaminobenzidine (DAB). The sections were counterstained with hematoxylin and stabilized with a mounting medium. The immunohistochemical images with integrated optical density (IOD) of positive expression, which reflected the distribution characteristics of anti-p-MET and anti-HGF positive stained area in tumor tissues, were quantitatively analyzed using Image-Pro Plus version 6.0 (Media Cybernetics, Inc., Silver Spring, MD, USA).

[7] = test system: MDA-MB-231 xenograft tumors; assay: Tumor growth inhibition assay, MDA-MB-231 tumor xenograft model; format: in vivo, BALB/c nude mice; settings: for tumor inhibitory rate: day 18, n = 6; for mean tumor volume: day 18, vehicle group 285.00 ± 30.82 mm^3
Method: MDA-MB-231 cells (2 × 10^7) were suspended in 200 μL of PBS (pH 7.4) and were inoculated subcutaneously into the second mammary fat pads of the nude mice. The tumor diameter was measured with a vernier caliper and converted into tumor volume using the formula 1/2 × A × B^2 (A = larger diameter, B = smaller diameter). The treatment was started when the average tumor volume reached 50 mm^3.
Xenograft mice were randomly divided into three groups, with six in each group. […] The blank control group received only the vehicle solution. The tumor size and body weight were measured every three days. After 18 days of treatment, the animals were euthanized by cervical displacement. The tumors were collected after the final treatment and frozen at −80 °C until use.

MET mRNA [8] = assay: Real-time PCR of MET mRNA in MDA-MB-231 cells; format: cell-based, human; settings: in vitro
Method: as §1

In the case of `COc1cc2c(Oc3ccc(NC(=O)C4(C(=O)Nc5ccc(F)cc5)CC4)cc3F)ccnc2cc1OCCCN1CCOCC1` [Foretinib], the “expression of p-MET in MDA-MB-231” value (p-MET [1]) is given as “remarkably inhibit”, the “mRNA expression level of HGF” value (HGF mRNA [2]) is given as “effectively suppressed” and the “mRNA expression level of MET” value (MET mRNA [3]) is given as “effectively suppressed”. The “mRNA expression level of HGF” value (HGF mRNA [4]) was “effectively suppressed”, the apoptosis (MDA-MB-231 cells; MDA-MB-231 cells) was “induce marked apoptosis” and the cell cycle arrest (MDA-MB-231 cells; MDA-MB-231 cells) was “arrest cancer cells mainly in the G2/M phase”. The “cell viability of MDA-MB-231” value (MDA-MB-231 cells) was “can decrease the cell viability”, the AUC(0-inf) ([5]; single oral dose 2 mg/kg) was 407 ± 63.4 ng·h/mL and the AUC(0-t) ([5]; single oral dose 2 mg/kg) was 366 ± 76.4 ng·h/mL. It also gave a Cmax ([5]; single oral dose 2 mg/kg) of 22.2 ± 11.2 ng/mL, a Tmax ([5]; single oral dose 2 mg/kg) of 4 h and a half-life ([5]; single oral dose 2 mg/kg) of 15.1 ± 2.49 h. For the same compound, the MRT ([5]; single oral dose 2 mg/kg) was 20.1 ± 5.05 h, the AUC(0-inf) ([5]; single oral dose 10 mg/kg) was 7260 ± 108 ng·h/mL and the AUC(0-t) ([5]; single oral dose 10 mg/kg) was 6210 ± 423 ng·h/mL. The Cmax ([5]; single oral dose 10 mg/kg) was 334 ± 107 ng/mL, the Tmax ([5]; single oral dose 10 mg/kg) was 2 h and the half-life ([5]; single oral dose 10 mg/kg) was 19.9 ± 6.72 h. It also gave an MRT ([5]; single oral dose 10 mg/kg) of 25.1 ± 8.36 h, an AUC(0-inf) ([5]; single oral dose 50 mg/kg) of 13000 ng·h/mL and an AUC(0-t) ([5]; single oral dose 50 mg/kg) of 12600 ng·h/mL. It also gave a Cmax ([5]; single oral dose 50 mg/kg) of 1430 ± 744 ng/mL, a Tmax ([5]; single oral dose 50 mg/kg) of 0.5 h and a half-life ([5]; single oral dose 50 mg/kg) of 9.48 ± 0.045 h. The MRT ([5]; single oral dose 50 mg/kg) was 13.3 ± 0.73 h, the “Vd (volume of distribution)” value ([5]; single oral dose 2 mg/kg) was 109.72 ± 34.73 L/kg and the “k (elimination constant)” value ([5]; single oral dose 2 mg/kg) was 0.046 ± 0.008 h⁻¹. The “Vd (volume of distribution)” value ([5]; single oral dose 10 mg/kg) was 39.76 ± 13.95 L/kg, the “k (elimination constant)” value ([5]; single oral dose 10 mg/kg) was 0.037 ± 0.012 h⁻¹ and the “Vd (volume of distribution)” value ([5]; single oral dose 50 mg/kg) was 60.90 ± 31.53 L/kg. For the same compound, the “k (elimination constant)” value ([5]; single oral dose 50 mg/kg) was 0.073 ± 0.0003 h⁻¹, the “expression of MET in MDA-MB-231” value (MET) was “remained unchanged” and the “p-MET expression in the tumor tissues (IHC staining, IOD)” value (p-MET [6]) was “decreased in a dose-dependent manner”. The “HGF expression in the tumor tissues (IHC staining, IOD)” value (HGF) was “decreased in a dose-dependent manner”, the tumor inhibitory rate ([7]; 15 mg/kg/day intragastric) was 42.79 ± 8.52% and the tumor inhibitory rate ([7]; 50 mg/kg/day intragastric) was 79.16 ± 4.58%. For the same compound, the mean tumor volume ([7]; high dose group (50 mg/kg/day)) was 80.67 ± 17.00 mm^3, the mean tumor volume ([7]; low dose group (15 mg/kg/day)) was 220.00 ± 70.14 mm^3 and the “mRNA expression level of MET” value (MET mRNA [8]) was “effectively suppressed”.
